Converted amounts (≈) assume the structure as drawn.
Test system: HIV-1 (RF)
Test: HIV RNA assay: microplate based compound evaluation in HIV-1 infected MT-2 cells
Assay type: cell-based
Conditions: Human immunodeficiency virus 1, MT2, 72 h; HIV-1 (RF) infected MT-2 cells, 3 days culture; value used to standardize the virus inoculum; read-out: IC90 (concentration of compound required to reduce the HIV RNA level by 90%)
Method: Plasmid PDAB 72 containing both gag and pol sequences of BH10 (bp 113-1816) cloned into PTZ 19R was prepared according to Erickson-Vitanen et al. AIDS Research and Human Retroviruses 1989, 5, 577. The plasmid was linearized with Bam HI prior to the generation of in vitro RNA transcripts using the Riboprobe Gemini system II kit (Promega) with T7 RNA polymerase. Synthesized RNA was purified by treatment with RNase free DNAse (Promega), phenol-chloroform extraction, and ethanol precipitation. RNA transcripts were dissolved in water, and stored at −70EC. The concentration of RNA was determined from the A260.
Biotinylated capture probes were purified by HPLC after synthesis on an Applied Biosystems (Foster city, Calif.) DNA synthesizer by addition of biotin to the 5N terminal end of the oligonucleotide, using the biotin-phosphoramidite reagent of Cocuzza, Tet. Lett. 1989, 30, 6287. […]
MT-2 and MT-4 cells were maintained in RPMI 1640 supplemented with 5% fetal calf serum (FCS) for MT-2 cells or 10% FCS for MT-4 cells, 2 mM L-glutamine and 50 μg/mL gentamycin, all from Gibco. […] Infectious titers of HIV-1 (RF) stocks were 1-3×10^7 PFU (plaque forming units)/mL as measured by plaque assay on MT-2 cells (see below). […]

Nc1ccn([C@H]2CC[C@@H](CO)O2)c(=O)n1 [ddC, dideoxycytidine]
IC90: 0.2 µg/mL (≈ 0.947 µM)

From patent publication US6943170B2, “N-cycloalkylglycines as HIV protease inhibitors” (Bristol-Myers Squibb Company, priority 2002, dated 2005)
